# Columns and labels:
# [1] = test system: human tumor cell lines; assay: MTT assays, cell line not given; format: cell-based; conditions: cell line not stated; for relative cytotoxic / biological activity: MTT; for IC50: Homo sapiens
# Procedure: (§1) The cytotoxicity assay of various CL2 compounds against human tumor cell lines was performed using the MTT (3-[4,5-dimethylthiazol-2-yl]-2,5-diphenyl tetrazolium bromide) assay (Boehringer Mannheim Corp., Indianapolis, Ind.). Briefly, exponentially growing tumor cells were seeded into a 96-well plate at a density of 2.5×10^4 cells/well and incubated for 36 hours at 37° C. prior to compound exposure. On the day of treatment, culture medium was carefully aspirated from the wells and replaced with fresh medium containing the CL2 compounds at concentrations ranging from 0.0 to 100 μM. Triplicate wells were used for each treatment.
# (§2) Human cell lines were obtained from American Type Culture Collection (Rockville, Md.) and maintained as a continuous cell line in Dulbecco's modified Eagles' medium supplemented with 10% fetal bovine serum and antibiotics. Cells used in this study include human leukemia cells (NALM-6 and MOLT-3).
# (§3) The cells were incubated with the various compounds for 24-36 hours at 37° C. in a humidified 5% CO2 atmosphere. To each well, 10 μl of MTT (0.5 mg/ml final concentration) was added and the plates were incubated at 37° C. for 4 hours to allow MTT to form formazan crystals by reacting with metabolically active cells. The formazan crystals were solubilized overnight at 37° C. in a solution containing 10% SDS in 0.01 M HCl. The absorbance of each well was measured in a microplate reader (Labsystems) at 540 nm and a reference wavelength of 690 nm. To translate the OD540 values into the number of live cells in each well, the OD540 values were compared to those on standard OD540-versus-cell number curves generated for each cell line. The percent survival was calculated using the formula:
# (§4) % Survival=live cell number [test]/live cell number [control]×100
# (§5) The IC50 values were calculated by non-linear regression analysis.
# [2] = test system: NALM-6 human leukemia cells; assay: MTT cytotoxicity assay, NALM-6; format: cell-based; conditions: for ED50 Nalm6: Table 4, individual lead compounds; for relative cytotoxic activity: ranking among the 21 individual compounds, Nalm6, MTT
# Procedure: Stage (4): deconvolution and re-synthesis were guided by an iterative screening procedure during which the cytotoxic anti-cancer activities of the individual sub-libraries were measured against the human leukemia cell lines NALM-6 and MOLT-3 using MTT assays. […] However, this is not always true when even-splitting was not possible or some special consideration. […] Another special example is the small 10-member sublibrary CL2.
# as §1, §2, §3, §4, §5
# [3] = compound stability remark in Table 1; format: physicochemical
smiles,measurement,setting,value
Fc1ccc(CCNC(=S)NCCc2ccc(Cl)cc2Cl)cc1 [CL10b],relative cytotoxic / biological activity,[1],most active
"S=C(NC(Cc1ccccc1)c1ccccc1)NC(c1ccccc1)c1ccccc1 (stereo not drawn) [Compound L34A3A5, 1-(1,2-Diphenylethyl)-3-(diphenylmethyl)-2-thiourea]",IC50,[1],< 10 µg/mL
same,ED50 Nalm6,[2],<10 µg/mL
same,relative cytotoxic activity,[2],most active
S=C(NC(c1ccccc1)(c1ccccc1)c1ccccc1)NC(c1ccccc1)(c1ccccc1)c1ccccc1 [Compound L34A4A4],ED50 Nalm6,[2],30 µg/mL
"S=C(NC(Cc1ccccc1)c1ccccc1)NC(Cc1ccccc1)c1ccccc1 (stereo not drawn) [Compound L34A5A5, 1,3-Bis(1,2-diphenylethyl)-2-thiourea]",IC50,[1],< 10 µg/mL
same,ED50 Nalm6,[2],<10 µg/mL
same,relative cytotoxic activity,[2],most active
CC(NC(=S)NC(c1ccccc1)(c1ccccc1)c1ccccc1)c1ccccc1 (stereo not drawn) [Compound L34A2A4],ED50 Nalm6,[2],50 µg/mL
S=C(NC(c1ccccc1)c1ccccc1)NC(c1ccccc1)c1ccccc1 [Compound L34A3A3],ED50 Nalm6,[2],>100 µg/mL
CC(NC(=S)NC(c1ccccc1)c1ccccc1)c1ccccc1 (stereo not drawn) [Compound L34A2A3],ED50 Nalm6,[2],50 µg/mL
COc1ccc(OC)c(CCNC(=S)NCCc2ccccc2OC)c1 [CL12a],relative cytotoxic / biological activity,[1],most active
COc1ccccc1CCNC(=S)NCCc1ccc(Cl)cc1Cl [CL12b],relative cytotoxic / biological activity,[1],most active
CC(NC(=S)NC(C)c1ccccc1)c1ccccc1 (stereo not drawn) [Compound L34A2A2],ED50 Nalm6,[2],50 µg/mL
Fc1ccc(CCNC(=S)NCCc2ccc(F)cc2)cc1 [CL2j],stability (remark in place of IC50),[3],unstable compound
